Consider five compounds from patent publication US12486267B2, “Imidazo[1,2-A]pyridine and [1,2,4]triazolo[1,5-A]pyridine derivatives as TLR9 inhibitors for the treatment of fibrosis” (BRISTOL-MYERS SQUIBB COMPANY, priority 2020, dated 2025).

Molecules are shown by their SMILES. Where only a bound is given, the exact number is not on record here.

What all share (format): cell-based
One assay addresses T1, human TLR9 (Homo sapiens, UniProt Q9NR96).
T1 sequence (Q9NR96 26-1032): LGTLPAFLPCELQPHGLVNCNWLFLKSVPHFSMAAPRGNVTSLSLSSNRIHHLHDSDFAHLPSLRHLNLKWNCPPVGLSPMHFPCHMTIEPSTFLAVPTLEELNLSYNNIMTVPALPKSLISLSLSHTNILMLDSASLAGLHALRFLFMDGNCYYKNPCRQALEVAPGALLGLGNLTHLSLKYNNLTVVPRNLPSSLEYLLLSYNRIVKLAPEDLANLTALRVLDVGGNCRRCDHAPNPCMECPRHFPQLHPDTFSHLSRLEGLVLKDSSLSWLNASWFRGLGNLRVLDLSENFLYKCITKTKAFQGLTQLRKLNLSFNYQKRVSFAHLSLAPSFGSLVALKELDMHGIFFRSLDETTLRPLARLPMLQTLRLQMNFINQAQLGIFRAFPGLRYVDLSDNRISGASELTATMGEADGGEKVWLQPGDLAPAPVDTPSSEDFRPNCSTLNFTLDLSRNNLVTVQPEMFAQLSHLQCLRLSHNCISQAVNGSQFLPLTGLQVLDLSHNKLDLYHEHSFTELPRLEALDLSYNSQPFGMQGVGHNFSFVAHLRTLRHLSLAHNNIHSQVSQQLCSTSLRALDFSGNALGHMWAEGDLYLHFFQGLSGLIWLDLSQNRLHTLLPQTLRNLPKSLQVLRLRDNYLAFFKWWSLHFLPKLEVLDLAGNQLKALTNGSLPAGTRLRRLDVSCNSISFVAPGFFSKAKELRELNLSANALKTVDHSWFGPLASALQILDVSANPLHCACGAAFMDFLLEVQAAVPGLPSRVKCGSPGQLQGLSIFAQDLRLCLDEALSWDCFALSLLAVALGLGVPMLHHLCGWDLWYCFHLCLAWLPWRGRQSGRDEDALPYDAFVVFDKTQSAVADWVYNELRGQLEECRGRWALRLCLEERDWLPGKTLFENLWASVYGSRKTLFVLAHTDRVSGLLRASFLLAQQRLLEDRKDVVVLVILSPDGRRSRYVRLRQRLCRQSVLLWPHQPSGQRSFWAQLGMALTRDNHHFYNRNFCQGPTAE
The experiment in a line: TLR9 inhibition reporter assay (HEK-Blue cells, SEAP reporter). Particulars: HEK-Blue cells overexpressing human TLR9; stimulated with ODN2006 5 nM; 22 hour incubation; SEAP readout. The method, boiled down:
(§1)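 HEK-Blue cells with NF-κB/AP-1-driven SEAP pre-treated 30 min with compound (0.05 nM–50 μM), then stimulated with gardiquimod 7.5 μM (TLR7), R848 15.9 μM (TLR8) or ODN2006 5 nM (TLR9). SEAP detected after 22 h at 37 °C; percent inhibition relative to agonist-plus-DMSO and known-inhibitor wells.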
Background: A reporter such as luciferase makes a cellular process visible.

The target of a further assay is T2, human TLR7 (Homo sapiens, UniProt Q9NYK1).
T2 sequence (Q9NYK1 27-1049): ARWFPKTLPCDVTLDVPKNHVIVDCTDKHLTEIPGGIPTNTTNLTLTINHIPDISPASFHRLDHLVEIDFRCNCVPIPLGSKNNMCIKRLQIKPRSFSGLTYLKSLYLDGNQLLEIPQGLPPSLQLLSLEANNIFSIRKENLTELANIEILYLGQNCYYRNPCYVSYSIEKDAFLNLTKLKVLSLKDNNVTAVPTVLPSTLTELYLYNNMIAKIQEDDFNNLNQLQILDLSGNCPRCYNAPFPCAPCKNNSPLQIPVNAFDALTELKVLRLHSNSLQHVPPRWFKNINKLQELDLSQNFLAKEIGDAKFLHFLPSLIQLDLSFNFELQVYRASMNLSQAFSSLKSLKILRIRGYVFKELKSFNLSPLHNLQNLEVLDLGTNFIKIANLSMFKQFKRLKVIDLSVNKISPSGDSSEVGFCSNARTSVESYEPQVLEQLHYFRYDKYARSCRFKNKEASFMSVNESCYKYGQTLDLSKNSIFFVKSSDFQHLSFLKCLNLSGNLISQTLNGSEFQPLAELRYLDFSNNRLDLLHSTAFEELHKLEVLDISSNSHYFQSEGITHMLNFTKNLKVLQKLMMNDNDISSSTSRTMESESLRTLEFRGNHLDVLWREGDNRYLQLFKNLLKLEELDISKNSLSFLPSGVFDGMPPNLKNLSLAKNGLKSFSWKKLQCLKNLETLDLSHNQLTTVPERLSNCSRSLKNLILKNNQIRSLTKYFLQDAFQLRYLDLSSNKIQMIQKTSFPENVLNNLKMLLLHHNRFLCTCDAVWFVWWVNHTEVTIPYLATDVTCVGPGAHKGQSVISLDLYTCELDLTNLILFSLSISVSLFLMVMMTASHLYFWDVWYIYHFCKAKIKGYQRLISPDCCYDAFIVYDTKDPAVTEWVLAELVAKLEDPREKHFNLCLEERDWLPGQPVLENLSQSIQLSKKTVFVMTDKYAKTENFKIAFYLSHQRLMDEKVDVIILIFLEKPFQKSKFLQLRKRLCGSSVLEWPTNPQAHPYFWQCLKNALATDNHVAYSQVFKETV
Description: TLR7 inhibition reporter assay (HEK-Blue cells, SEAP reporter). Particulars: HEK-Blue cells overexpressing human TLR7; stimulated with gardiquimod 7.5 μM; 22 hour incubation; SEAP readout. Summed up: as §1

For another assay, the target named is T3, human TLR8 (Homo sapiens, UniProt Q9NR97).
T3 sequence (Q9NR97 27-1041): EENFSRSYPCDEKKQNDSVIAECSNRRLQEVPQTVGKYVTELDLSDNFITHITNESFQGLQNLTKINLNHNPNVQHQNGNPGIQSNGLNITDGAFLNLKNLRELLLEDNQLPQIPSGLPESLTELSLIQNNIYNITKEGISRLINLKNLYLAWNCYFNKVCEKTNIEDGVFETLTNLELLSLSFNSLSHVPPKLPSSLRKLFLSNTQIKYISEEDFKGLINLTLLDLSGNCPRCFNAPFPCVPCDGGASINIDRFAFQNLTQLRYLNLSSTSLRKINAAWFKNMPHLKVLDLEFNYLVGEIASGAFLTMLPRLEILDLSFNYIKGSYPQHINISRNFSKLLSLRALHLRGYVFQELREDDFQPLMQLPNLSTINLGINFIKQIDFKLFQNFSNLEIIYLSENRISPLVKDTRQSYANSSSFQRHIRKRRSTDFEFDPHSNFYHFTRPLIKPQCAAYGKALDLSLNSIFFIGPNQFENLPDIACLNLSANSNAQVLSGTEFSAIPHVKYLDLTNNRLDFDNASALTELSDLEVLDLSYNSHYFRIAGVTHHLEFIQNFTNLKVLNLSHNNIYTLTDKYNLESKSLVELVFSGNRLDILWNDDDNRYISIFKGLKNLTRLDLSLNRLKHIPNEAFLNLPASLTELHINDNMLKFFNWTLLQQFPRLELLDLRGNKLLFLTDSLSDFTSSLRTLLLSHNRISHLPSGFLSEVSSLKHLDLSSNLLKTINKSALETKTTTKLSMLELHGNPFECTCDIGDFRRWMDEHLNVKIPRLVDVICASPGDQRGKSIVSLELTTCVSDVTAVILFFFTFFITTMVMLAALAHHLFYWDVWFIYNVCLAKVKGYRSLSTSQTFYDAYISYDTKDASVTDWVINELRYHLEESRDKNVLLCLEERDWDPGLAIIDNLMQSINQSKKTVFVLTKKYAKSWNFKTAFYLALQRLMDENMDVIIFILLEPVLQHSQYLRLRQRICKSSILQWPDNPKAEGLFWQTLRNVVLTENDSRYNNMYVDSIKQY
The experiment in a line: TLR8 inhibition reporter assay (HEK-Blue cells, SEAP reporter). Particulars: HEK-Blue cells overexpressing human TLR8; stimulated with R848 15.9 μM; 22 hour incubation; SEAP readout. The method, boiled down: as §1

A word on the IC50: it is the concentration that gives 50% inhibition. A lower IC50 goes with higher potency. Turning to `Cc1cc(-c2ccc(N3CCN(CC4CC4)CC3)cc2)cn2cc(-c3ccc(S(C)(=O)=O)cc3)nc12` [Example 100, 6-(4-(4-(cyclopropylmethyl)piperazin-1-yl)phenyl)-8-methyl-2-(4-(methylsulfonyl)phenyl) imidazo[1,2-a]pyridine], the IC50 against human TLR9 came out at 329 nM; against human TLR7 it was 13400 nM; against human TLR8, 14900 nM.
The like results for `Cc1cc(C2CCN(C3CCN(C(C)C)CC3)CC2)cc2nc(-c3ccc(S(C)(=O)=O)cc3)cn12` [Example 66, 7-(1′-isopropyl-[1,4′-bipiperidin]-4-yl)-5-methyl-2-(4-(methylsulfonyl)phenyl) imidazo[1,2-a]pyridine] were, in that order, 62 nM, 14300 nM and over 50000 nM.
In the same order, the values of `CS(=O)(=O)c1ccc(-c2cn3ccc(C4CCN(C5CCN(C6CCOCC6)CC5)CC4)c(F)c3n2)cc1` [Example 133, 8-fluoro-2-(4-(methylsulfonyl)phenyl)-7-(1′-(tetrahydro-2H-pyran-4-yl)-[1,4′-bipiperidin]-4-yl)imidazo[1,2-a]pyridine] are 6 nM, 1900 nM and over 50000 nM.
As to `COc1ccc(-c2cn3c(n2)CC[C@@H](C2CCN(C4CC5CCC(C4)N5C(C)C)CC2)C3)cc1OC` (single isomer, unassigned) [Example 137], the results for the IC50 on human TLR9, at human TLR7 and against human TLR8 were 46 nM, 3000 nM and over 25000 nM, respectively.
The like results for `CS(=O)(=O)c1ccc(-c2cn3cc(C4CCN(C5CCCN(CC6CC6)CC5)CC4)cc(F)c3n2)cc1` (single isomer, unassigned) [Example 127, 6-(1-(1-(cyclopropylmethyl)azepan-4-yl)piperidin-4-yl)-8-fluoro-2-(4-(methylsulfonyl)phenyl)imidazo[1,2-a]pyridine] were, in that order, 9.7 nM, 1600 nM and 36000 nM.
